In patent US9617230B2, “Creatine prodrugs, compositions and methods of use thereof” (Farmington Pharma Development, priority 2014, dated 2017):
Blank lines part the entries; values can stand above or below the compound they belong to.

Columns and labels:
[1] = athletes and body builders, 2-3 gm/day; cited from earlier work
[2] = animals fed a diet containing up to 1% cyclocreatine; cited from earlier work
[3] = Stability of prodrugs in simulated gastric fluid (SGF) with and without pepsin; format: in vitro ADME; conditions: prodrug 10 μM, 37° C.
Procedure: For determination of stability in simulated gastric fluid (SGF), prodrug (10 μM) is incubated in SGF (0.2% NaCl w/v, 0.7% HCl v/v, pH1.2) with and without addition of pepsin (3.2 g of purified pepsin per liter with an activity of 800-2500 units per mg of protein) at 37° C. At selected time points (e.g., 0, 15, 30, 60 and 120 min) 50 μL aliquots are removed and neutralized by addition of 50 μL of 0.1M sodium bicarbonate solution, followed by 150 μL of ice-cold acetonitrile. Samples are centrifuged at 4,000×g for 15 min at 4° C., and the supernatants are removed and analyzed for prodrug, creatine and creatinine concentrations by LC-MSMS (Table 2).

[4] = Stability of prodrugs in simulated intestinal fluid (SIF) with and without pancreatin; format: in vitro ADME; conditions: prodrug 10 μM, 37° C.
Procedure: For determination of stability in simulated intestinal fluid (SIF), prodrug (10 μM) is incubated in SIF (0.68% KH2PO4 w/v, 0.86% NaOH v/v, pH 6.8) with and without addition of pancreatin (1% w/v) at 37° C. At selected time points (e.g., 0, 15, 30, 60 and 120 min) 50 μL aliquots are removed and the reactions are terminated by addition of 150 μL of ice-cold acetonitrile. Samples are centrifuged at 4,000×g for 15 min at 4° C., and the supernatants are removed and analyzed for prodrug, creatine and creatinine concentrations by LC-MSMS (Table 3).

[5] = Stability in mouse plasma incubations; format: in vitro ADME
Procedure: (§1) To determine prodrug stability in mouse, rat, human or plasma from other species, prodrugs (10 μM) or positive controls (10 μM, propantheline or procaine) are incubated in undiluted plasma. Duplicate samples of prodrugs and controls are prepared and analyzed. Stock solutions of prodrugs are prepared in DMSO (10 mM) and diluted to 0.1 mM in pH 7.4 phosphate buffer to prepare spiking solutions. The prodrug spiking solutions are aliquoted (10 μL) into 96-well plates. Pre-warmed (37° C.) plasma (90 μL) is added to the wells designated for 5, 15, 30, 45 and 60 min time points; for t=0 min the quench solution (400 μL acetonitrile) is added directly to the prodrug containing well followed by 90 μL of pre-warmed plasma. At 5, 15, 30, 45 and 60 min 400 μL aliquots of acetonitrile are added to the wells to stop the reaction. After quenching, the plates are shaken for 10 min (600 rpm) and then centrifuged at 5500 g for 15 min. Aliquots (50 μL) are transferred to the analysis plate and diluted with 100 μL ultrapure water (Millipore) for LC-MSMS quantitation of prodrug concentrations, and in some cases creatine and/or creatinine. Chromatography columns (e.g., Atlantis HILIC Silica, Gemini C-18, Ultimate XB-C18) are selected based upon the lipophilicity and polarity of each prodrug. LC-MSMS platforms (e.g., Sciex API4000, Sciex API6500) are also selected based on the requirements of each prodrug. The stabilities of the compounds of the present disclosure (prodrugs) in mouse plasma incubations is shown in Table 4 and stability in human plasma incubations is shown in Table 5.

[6] = Metabolic stability in mouse liver microsomal incubations; format: in vitro ADME
Procedure: (§2) Incubations are conducted at 37° C. in the presence or absence of NADPH regenerating system to indicate whether metabolism proceeds via an NADPH requiring enzyme (i.e. P450s, FMOs, NADPH-P450 reductase or other oxidase enzymes). Duplicate samples of prodrugs and controls are prepared and analyzed. Stock solutions of prodrugs are prepared in DMSO (10 mM) and diluted to 0.05 mM in a mixture of 25% MeOH/pH 7.4 phosphate buffer to prepare spiking solutions. The prodrug spiking solutions are aliquoted (10 μL) into 96-well plates. Pre-warmed (37° C.) microsome solution (80 μL) is added to the wells designated for 5, 15, 30, 45 and 60 min time points and incubated for 10 min before initiating the reaction with 10 μL of NADPH regenerating solution. For t=0 min the quench solution (300 μL acetonitrile) is added directly to the prodrug containing well followed by the microsome solution and NADPH solution. Incubations of the prodrugs in heat-inactivated fractions or buffer are conducted to differentiate enzymatic from non-enzymatic degradation. At specified time points (e.g., 0, 5, 10, 20, 30 and 60 min), samples are taken and terminated with an equal volume of cold acetonitrile containing a suitable internal standard (e.g., labetalol, tolbutamide). After quenching, the plates are centrifuged at 4000 g for 20 min. Aliquots (100 μL) are transferred to the analysis plate and diluted with 400 μL ultrapure water (Millipore) for LC-MSMS quantitation of prodrug concentrations, and in some cases creatine and/or creatinine. Chromatography columns (e.g., ACE 5 Phenyl, Phenomenex C18 Synergi Hydro-RP, Atlantis HILIC Silica) are selected based upon the lipophilicity and polarity of each prodrug. LC-MSMS platforms (e.g., Sciex API4000, Sciex API6500) are also selected based on the requirements of each prodrug. The metabolic stability of the compounds of the present disclosure of in mouse liver microsomal incubations is shown in Table 6 and human liver microsomal incubations is shown in Table 7.

[7] = In vitro release of d3-creatine and d3-creatinine from d3-prodrugs in mouse liver homogenate (MLH) incubations; format: in vitro ADME
Procedure: For assessment of the ability of prodrugs to release creatine, and to release creatine preferentially to unwanted cyclization to creatinine, d3-labeled (deuterium labeled methyl group) prodrugs are incubated with liver homogenates (e.g., mouse, human) specially prepared to preserve N-reductase activity. The use of d3-labelled prodrugs is essential in order to distinguish prodrug-derived creatine (d3-creatine) from high concentrations of endogenous (non-labeled) creatine. Incubations (37° C.) are performed in 100 mM potassium phosphate buffer, pH 6.0 to optimize N-reductase activity. Prodrugs are tested at final concentrations of 20 μM and 200 μM. Approximately 4-5 mg of homogenate is used for each reaction. Co-factor (NADH) is included at a final concentration of 1 mM. Benzamidoxime (500 μM final concentration) is used as a positive control for N-reductase activity. N-reductase activity is confirmed by conversion of benzamidoxime into benzamidine. Negative controls include incubations without NADH (to assess NADH-independent prodrug cleavage) and incubations without liver homogenate (but with NAPD) to assess non-enzymatic prodrug cleavage under the conditions of the assay. […] Sample supernatants are analyzed by LC-MSMS (HILIC column) for determination of d3-prodrug, d3-creatine and d3-creatinine levels (Table 8).

[8] = Stability in human plasma incubations; format: in vitro ADME
Procedure: as §1

[9] = Metabolic stability in human liver microsomal incubations; format: in vitro ADME; conditions: human liver microsomes
Procedure: as §2

SMILES: CN(CC(=O)O)C(=N)N.O [creatine monohydrate]
- adverse side effects [1]: without adverse side effects

SMILES: CN(CC(=O)O)c1noc(=O)[nH]1 [Example 27, 2-[methyl-(5-oxo-4H-1,2,4-oxadiazol-3-yl)amino]acetic acid]
- melting point: 150 to 155 °C

SMILES: [2H]C([2H])([2H])N(CC(=O)O)c1nc(=O)o[nH]1 [Example 28, Step 4, 2-[(5-oxo-2H-1,2,4-oxadiazol-3-yl)-(trideuteriomethyl)amino]acetic acid]
- melting point: 150 to 155 °C

SMILES: NC1=NCCN1CC(=O)O [cyclocreatine]
- adverse effects [2]: do not exhibit adverse effects

SMILES: CCOC(=O)CN(C)c1noc(=O)[nH]1 [Example 26, ethyl 2-[methyl-(5-oxo-4H-1,2,4-oxadiazol-3-yl)amino]acetate]
- melting point: 120 to 123 °C

SMILES: [2H]C([2H])([2H])N(CC(=O)OC)c1nc(=O)o[nH]1 [Example 28, Step 3, methyl 2-[(5-oxo-2H-1,2,4-oxadiazol-3-yl)-(trideuteriomethyl)amino]acetate]
- melting point: 120 to 125 °C

Further lines, results first:

- half-life at 10 μM ([3]; simulated gastric fluid (SGF) with pepsin, SGF pH 1.2 with pepsin, read-out: T1/2 (min) (+) pepsin): > 360 min
- half-life at 10 μM ([3]; simulated gastric fluid (SGF) without pepsin, SGF pH 1.2 without pepsin, read-out: T1/2 (min) (−) pepsin): > 360 min
- half-life at 10 μM ([4]; simulated intestinal fluid (SIF) with pancreatin, SIF pH 6.8, title: with pancreatin (1% w/v), read-out: T1/2 (min) (+) pepsin): > 360 min
- half-life at 10 μM ([4]; simulated intestinal fluid (SIF) without pancreatin, SIF pH 6.8, title: without pancreatin, read-out: T1/2 (min) (−) pepsin): > 360 min
- melting point: 110 to 115 °C
- half-life at 10 μM [5]: > 3 h
- % Remaining 5 min ([5]; 10 μM, 5 min): 100%
- % Remaining 60 min ([5]; 10 μM, 60 min): 89.0%
- % Remaining (No NADPH) 30 min ([6]; mouse liver microsomes, no NADPH, 30 min, 10 μM): 15.6%
- % Remaining (w/NADPH) 5 min ([6]; mouse liver microsomes, with NADPH, 5 min, 10 μM): 89.1%
- % Remaining (w/NADPH) 30 min ([6]; mouse liver microsomes, with NADPH, 30 min, 10 μM): 26.0%
- half-life at 10 μM ([6]; pH 7.4, mouse liver microsomes): 0.333 h
- CLint scaled at 10 μM ([6]; pH 7.4, mouse liver microsomes, read-out: in vivo Clint): 407 mL/min/kg
- Concentration (μM) at 120 min, Prodrug ([7]; Negative Control (No MLH)): 240 µM
- Concentration (μM) at 120 min, Prodrug ([7]; Prodrug + MLH + NADH): 4.70 µM
- half-life at 10 μM [8]: 2.57 h
- % Remaining 5 min ([8]; 5 min, 10 μM): 101%
- % Remaining 60 min ([8]; 1 h, 10 μM): 75.6%
- half-life at 10 μM [9]: > 1.5 h
- % Remaining (No NADPH) 30 min ([9]; no NADPH, 30 min, 10 μM): 106%
- CLint scaled at 10 μM ([9]; read-out: in vivo Clint): < 21 mL/min/kg
- % Remaining (w/NADPH) 5 min ([9]; with NADPH, 5 min, 10 μM): 103.8%
- % Remaining (w/NADPH) 30 min ([9]; with NADPH, 30 min, 10 μM): 82.1%
SMILES: [2H]C([2H])([2H])N(CC(=O)OCCCCCCC)c1nc(=O)o[nH]1 [Compound E, heptyl 2-[(5-oxo-2H-1,2,4-oxadiazol-3-yl)-(trideuteriomethyl)amino]acetate]

- melting point: 98 to 104 °C
SMILES: [2H]C([2H])([2H])N(CCO)c1nc(=O)o[nH]1 [Example 29, 3-[2-hydroxyethyl(trideuteriomethyl)amino]-2H-1,2,4-oxadiazol-5-one]

- melting point: 143 to 145 °C
SMILES: [2H]C([2H])([2H])N(CC(=O)OC(C)C)c1nc(=O)o[nH]1 [Example 28, Step 5C, isopropyl 2-[(5-oxo-2H-1,2,4-oxadiazol-3-yl)-(trideuteriomethyl)amino]acetate]
